In patent US20070009563A1, “PROCESS FOR COATING FIBER OR FABRIC WITH INSECTICIDE USING A TEMPERATURE OF 150°C-190°C FOR DRYING” (priority 2005, published 2007):

How the values were obtained:
[1] = Quantity of deltamethrin on mosquito net fabric after drying at various temperatures; assay type: physicochemical; conditions: polyester net coated at 55 mg/m^2
Description: High temperatures in the range of 150° C.-190° C. are used in the process of fabric drying according to the present invention to create fiber stability and strengthen chemicals used for stabilizing that fiber in order to make the insecticide adhere to the fiber. However, this temperature range affects the insecticide degradation. For example, coating of a polyester mosquito net with deltamethrin requires a deltamethrin concentration of 55 mg/m^2. The material is then dried at various temperatures using the same length of time for drying.
The ratio of deltamethrin degradation is also affected by the length of time for drying.

[2] = system: insects; conditions: with small dosages; cited from earlier work
[3] = Quantity of deltamethrin on mosquito net fabric before and after washing (WHO washing procedure standard); assay type: physicochemical; conditions: for Deltamethrin on the fabric, After Washing 5 Times: after 5 washes; for Deltamethrin on the fabric, After Washing 10 Times: after 10 washes; for Deltamethrin on the fabric, After Washing 15 Times: after 15 washes; for Deltamethrin on the fabric, After Washing 20 Times: after 20 washes
From the text: In addition, the temperatures used for drying the fabric in the manufacturing process affect washing resistance. That is, the fabric which is dried at higher temperature can resist washing better than the fabric that is dried at lower temperature.

[4] = system: mosquitoes; assay: Efficiency test for mosquito net dipped in insecticide: 3 minutes contact, knock down and mortality; assay type: in vivo; conditions: for % KD, After Washing 5 Times / % mort., After Washing 5 Times: after 5 washes; for % KD, After Washing 5 Times / % KD, After Washing 10 Times / % KD, After Washing 15 Times / % KD, After Washing 20 Times / % KD, Before Washing: knock down after 60 minutes; for % mort., After Washing 5 Times / % mort., After Washing 10 Times / % mort., After Washing 15 Times / % mort., After Washing 20 Times / % mort., Before Washing: mortality after 24 hours; for % KD, After Washing 10 Times / % mort., After Washing 10 Times: after 10 washes; for % KD, After Washing 15 Times / % mort., After Washing 15 Times: after 15 washes; for % KD, After Washing 20 Times / % mort., After Washing 20 Times: after 20 washes
Description: The efficiency test for mosquito net dipped in insecticide/insect repellent is done by letting mosquitoes rest on the mosquito net for 3 minutes and then catching the mosquitoes, placing them in a clean container, and observing them to see which of the following conditions apply:
1. % Knock down (% KD): the number of mosquitoes that cannot move after 60 minutes, in some embodiments, must be more than 80%.
2. Mortality (% mort.): the mortality rate of mosquitoes after 24 hours, in some embodiments, must be more than 95%.

## CC1(C)[C@H](C(=O)O[C@H](C#N)c2cccc(Oc3ccccc3)c2)[C@@H]1C=C(Br)Br [deltamethrin, Deltamethrin]
[1]; drying temperature 150 °C
  Deltamethrin on the fabric of mosquito net after drying: 55 mg/m^2
[1]; drying temperature 160 °C
  Deltamethrin on the fabric of mosquito net after drying: 55 mg/m^2
[1]; drying temperature 170 °C
  Deltamethrin on the fabric of mosquito net after drying: 55 mg/m^2
[1]; drying temperature 180 °C
  Deltamethrin on the fabric of mosquito net after drying: 37 mg/m^2
[1]; drying temperature 190 °C
  Deltamethrin on the fabric of mosquito net after drying: 25 mg/m^2
[2]
  effectiveness relative to permethrin: more than 30 times
[3]; drying temperature 150 °C
  Deltamethrin on the fabric, After Washing 5 Times: 40 mg/m^2
  Deltamethrin on the fabric, After Washing 10 Times: 32 mg/m^2
  Deltamethrin on the fabric, After Washing 15 Times: 16 mg/m^2
  Deltamethrin on the fabric, After Washing 20 Times: 10 mg/m^2
  Deltamethrin on the fabric, Before Washing: 55 mg/m^2
[3]; drying temperature 160 °C
  Deltamethrin on the fabric, After Washing 5 Times: 42 mg/m^2
  Deltamethrin on the fabric, After Washing 10 Times: 36 mg/m^2
  Deltamethrin on the fabric, After Washing 15 Times: 19 mg/m^2
  Deltamethrin on the fabric, After Washing 20 Times: 12 mg/m^2
  Deltamethrin on the fabric, Before Washing: 55 mg/m^2
[3]; drying temperature 170 °C
  Deltamethrin on the fabric, After Washing 5 Times: 44 mg/m^2
  Deltamethrin on the fabric, After Washing 10 Times: 38 mg/m^2
  Deltamethrin on the fabric, After Washing 15 Times: 22 mg/m^2
  Deltamethrin on the fabric, After Washing 20 Times: 16 mg/m^2
  Deltamethrin on the fabric, Before Washing: 55 mg/m^2
[3]; drying temperature 180 °C
  Deltamethrin on the fabric, After Washing 5 Times: 26 mg/m^2
  Deltamethrin on the fabric, After Washing 10 Times: 20 mg/m^2
  Deltamethrin on the fabric, After Washing 15 Times: 16 mg/m^2
  Deltamethrin on the fabric, After Washing 20 Times: 4 mg/m^2
  Deltamethrin on the fabric, Before Washing: 37 mg/m^2
[3]; drying temperature 190 °C
  Deltamethrin on the fabric, After Washing 5 Times: 19 mg/m^2
  Deltamethrin on the fabric, After Washing 10 Times: 15 mg/m^2
  Deltamethrin on the fabric, After Washing 15 Times: 8 mg/m^2
  Deltamethrin on the fabric, After Washing 20 Times: 4 mg/m^2
  Deltamethrin on the fabric, Before Washing: 25 mg/m^2
[4]; drying temperature 150 °C
  % KD, After Washing 5 Times: 100%
  % mort., After Washing 5 Times: 100%
  % KD, After Washing 10 Times: 100%
  % mort., After Washing 10 Times: 100%
  % KD, After Washing 15 Times: 100%
  % mort., After Washing 15 Times: 90%
  % KD, After Washing 20 Times: 95%
  % mort., After Washing 20 Times: 82%
  % KD, Before Washing: 100%
  % mort., Before Washing: 100%
[4]; drying temperature 160 °C
  % KD, After Washing 5 Times: 100%
  % mort., After Washing 5 Times: 100%
  % KD, After Washing 10 Times: 100%
  % mort., After Washing 10 Times: 96%
  % KD, After Washing 15 Times: 100%
  % mort., After Washing 15 Times: 90%
  % KD, After Washing 20 Times: 96%
  % mort., After Washing 20 Times: 80%
  % KD, Before Washing: 100%
  % mort., Before Washing: 100%
[4]; drying temperature 170 °C
  % KD, After Washing 5 Times: 100%
  % mort., After Washing 5 Times: 100%
  % KD, After Washing 10 Times: 100%
  % mort., After Washing 10 Times: 100%
  % KD, After Washing 15 Times: 100%
  % mort., After Washing 15 Times: 90%
  % KD, After Washing 20 Times: 95%
  % mort., After Washing 20 Times: 82%
  % KD, Before Washing: 100%
  % mort., Before Washing: 100%
[4]; drying temperature 180 °C
  % KD, After Washing 5 Times: 100%
  % mort., After Washing 5 Times: 82%
  % KD, After Washing 10 Times: 95%
  % mort., After Washing 10 Times: 62%
  % KD, After Washing 15 Times: 82%
  % mort., After Washing 15 Times: 22%
  % KD, After Washing 20 Times: 84%
  % mort., After Washing 20 Times: 0%
  % KD, Before Washing: 100%
  % mort., Before Washing: 98%
[4]; drying temperature 190 °C
  % KD, After Washing 5 Times: 100%
  % mort., After Washing 5 Times: 68%
  % KD, After Washing 10 Times: 95%
  % mort., After Washing 10 Times: 18%
  % KD, After Washing 15 Times: 44%
  % mort., After Washing 15 Times: 0%
  % KD, After Washing 20 Times: 16%
  % mort., After Washing 20 Times: 0%
  % KD, Before Washing: 100%
  % mort., Before Washing: 96%
